Experimental data taken from patent US20110105509A1 (Wyeth, LLC, priority 2009, published 2011).

Target: T1, CRTH2 (Homo sapiens, UniProt Q9Y5Y4)
T1 construct: expressed in transfected cells; host or cells: CHO cells
T1 sequence (Q9Y5Y4 1-395): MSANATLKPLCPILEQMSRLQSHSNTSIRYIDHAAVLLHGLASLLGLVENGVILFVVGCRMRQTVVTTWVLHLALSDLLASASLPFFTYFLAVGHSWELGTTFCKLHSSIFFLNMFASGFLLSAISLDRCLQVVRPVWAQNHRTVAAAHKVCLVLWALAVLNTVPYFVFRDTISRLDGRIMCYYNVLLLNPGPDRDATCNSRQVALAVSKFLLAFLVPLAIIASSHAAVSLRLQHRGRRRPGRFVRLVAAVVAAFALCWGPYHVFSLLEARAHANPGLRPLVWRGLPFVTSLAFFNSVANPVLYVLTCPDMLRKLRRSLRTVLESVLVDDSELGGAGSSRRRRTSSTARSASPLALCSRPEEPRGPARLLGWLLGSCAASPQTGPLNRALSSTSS
Assay: FRET based competitive immunoassay (cAMP) in CRTH2 expressing CHO cells
Type: cell-based
Settings: CRTH2 expressing CHO cells incubated with forskolin and PGD2; Eu3+ cryptate-labeled anti-cAMP and d2-labeled cAMP
Experimental: FRET Assay: To evaluate potency compounds were tested in a FRET based competitive immunoassay in which CRTH2 expressing CHO cells were incubated in the presence of forskolin and PGD2 along with Eu3+ cryptate-labeled anti-cAMP and d2-labeled cAMP.

Row | SMILES | IC50
1 | Cc1c(-c2nn(Cc3ccc(OC(F)(F)F)cc3)c(=O)c3ccccc23)c2cc(F)ccc2n1CC(=O)O [Example 117, 2-(5-fluoro-2-methyl-3-(4-oxo-3-(4-(trifluoromethoxy)benzyl)-3,4-dihydro-phthalazin-1-yl)-1H-indol-1-yl)acetic acid] | 22 nM
2 | Cc1c(-c2nn(Cc3ccc4ccccc4n3)c(=O)c3ccccc23)c2cc(F)ccc2n1CC(=O)O [Example 118, 2-(5-fluoro-2-methyl-3-(4-oxo-3-(quinolin-2-ylmethyl)-3,4-dihydro-phthalazin-1-yl)-1H-indol-1-yl)acetic acid] | 9 nM
3 | Cc1cc(Cn2nc(-c3c(C)n(CC(=O)O)c4ccc(F)cc34)c3ccccc3c2=O)c2ccccc2n1 [Example 119, 2-(5-fluoro-2-methyl-3-(3-((2-methylquinolin-4-yl)methyl)-4-oxo-3,4-dihydro-phthalazin-1-yl)-1H-indol-1-yl)acetic acid] | 17 nM
4 | Cc1c(-c2nn(C)c(=O)c3ccccc23)c2cc(F)ccc2n1CC(=O)O [Example 120, 2-(5-fluoro-2-methyl-3-(3-methyl-4-oxo-3,4-dihydrophthalazin-1-yl)-1H-indol-1-yl)acetic acid] | 201 nM
5 | CCn1nc(-c2c(C)n(CC(=O)O)c3ccc(F)cc23)c2ccccc2c1=O [Example 121, 2-(3-(3-ethyl-4-oxo-3,4-dihydrophthalazin-1-yl)-5-fluoro-2-methyl-1H-indol-1-yl)acetic acid] | 55 nM
6 | Cc1c(-c2nn(CC3CC3)c(=O)c3ccccc23)c2cc(F)ccc2n1CC(=O)O [Example 122, 2-(3-(3-(cyclopropylmethyl)-4-oxo-3,4-dihydrophthalazin-1-yl)-5-fluoro-2-methyl-1H-indol-1-yl)acetic acid] | 27 nM
7 | Cc1c(-c2nn(C3CC3)c(=O)c3ccccc23)c2cc(F)ccc2n1CC(=O)O [Example 123, 2-(3-(3-cyclopropyl-4-oxo-3,4-dihydrophthalazin-1-yl)-5-fluoro-2-methyl-1H-indol-1-yl)acetic acid] | 22 nM
8 | Cc1c(-c2nn(CC(C)(C)O)c(=O)c3ccccc23)c2cc(F)ccc2n1CC(=O)O [Example 129, 2-(5-fluoro-3-(3-(2-hydroxy-2-methylpropyl)-4-oxo-3,4-dihydrophthalazin-1-yl)-2-methyl-1H-indol-1-yl)acetic acid] | 136 nM

Stronger by IC50, values ahead:

Row | IC50 | SMILES
9 | 7 nM | Cc1c(-c2nn(Cc3c(F)cccc3F)c(=O)c3ccccc23)c2cc(F)ccc2n1CC(=O)O [Example 116, 2-(3-(3-(2,6-difluorobenzyl)-4-oxo-3,4-dihydrophthalazin-1-yl)-5-fluoro-2-methyl-1H-indol-1-yl)acetic acid]
10 | 8 nM | Cc1c(-c2nn(CC(F)(F)F)c(=O)c3ccccc23)c2cc(F)ccc2n1CC(=O)O [Example 124, 2-(5-fluoro-2-methyl-3-(4-oxo-3-(2,2,2-trifluoroethyl)-3,4-dihydro-phthalazin-1-yl)-1H-indol-1-yl)acetic acid]
11 | 4 nM | Cc1c(-c2nn(CCCC(F)(F)F)c(=O)c3ccccc23)c2cc(F)ccc2n1CC(=O)O [Example 125, 2-(5-fluoro-2-methyl-3-(4-oxo-3-(4,4,4-trifluorobutyl)-3,4-dihydro-phthalazin-1-yl)-1H-indol-1-yl)acetic acid]
12 | 8 nM | Cc1c(-c2nn(CC(C)(C)C)c(=O)c3ccccc23)c2cc(F)ccc2n1CC(=O)O [Example 126, 2-(5-fluoro-2-methyl-3-(3-neopentyl-4-oxo-3,4-dihydrophthalazin-1-yl)-1H-indol-1-yl)acetic acid]
13 | 4 nM | Cc1c(-c2nn(CCC(F)(F)F)c(=O)c3ccccc23)c2cc(F)ccc2n1CC(=O)O [Example 127, 2-(5-fluoro-2-methyl-3-(4-oxo-3-(3,3,3-trifluoropropyl)-3,4-dihydro-phthalazin-1-yl)-1H-indol-1-yl)acetic acid]
14 | 6 nM | CCC(O)(CC)Cn1nc(-c2c(C)n(CC(=O)O)c3ccc(F)cc23)c2ccccc2c1=O [Example 128, 2-(3-(3-(2-ethyl-2-hydroxybutyl)-4-oxo-3,4-dihydrophthalazin-1-yl)-5-fluoro-2-methyl-1H-indol-1-yl)acetic acid]
